According to ChEMBL document CHEMBL1201862, “PubChem BioAssay data set” (2004):
Structures can show the parent of a compound that is named as a salt. The source made the active and inactive calls.

Experiments:
[1] = biological target: Glutathione-S-transferase (Schistosoma japonicum, UniProt Q26513); assay: biotin-GST/anti-GST TR-FRET signal inhibitors, dose response, artefact control for Vif-APOBEC3G degradation inhibitor project, biochemical (AID 1117362); type: functional
[2] = biological target: Luciferin 4-monooxygenase (Photinus pyralis, UniProt P08659); assay: firefly luciferase enzyme inhibitors, dose response, biochemical, luminescence (AID 1891)
Chain of Luciferin 4-monooxygenase (P08659 whole entry): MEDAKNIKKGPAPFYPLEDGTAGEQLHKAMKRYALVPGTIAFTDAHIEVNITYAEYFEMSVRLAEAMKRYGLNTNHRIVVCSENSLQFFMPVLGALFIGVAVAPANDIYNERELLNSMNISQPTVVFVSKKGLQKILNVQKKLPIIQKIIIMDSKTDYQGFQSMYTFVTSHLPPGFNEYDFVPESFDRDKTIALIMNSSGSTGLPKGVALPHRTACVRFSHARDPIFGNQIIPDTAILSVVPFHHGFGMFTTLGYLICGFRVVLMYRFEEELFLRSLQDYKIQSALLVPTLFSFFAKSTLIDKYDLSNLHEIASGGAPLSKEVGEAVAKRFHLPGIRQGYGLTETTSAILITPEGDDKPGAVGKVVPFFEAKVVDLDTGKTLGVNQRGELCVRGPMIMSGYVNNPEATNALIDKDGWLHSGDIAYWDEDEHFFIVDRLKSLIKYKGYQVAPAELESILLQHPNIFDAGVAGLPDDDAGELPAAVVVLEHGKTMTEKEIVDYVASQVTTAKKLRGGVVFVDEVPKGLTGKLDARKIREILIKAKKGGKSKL

Protein Tat = Protein Tat (Human immunodeficiency virus type 1 group M subtype B (isolate HXB2)(HIV-1), UniProt P04608); type: functional;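 also: tat binding to TAR RNA read out by fluorescence polarization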
Chain of Protein Tat (P04608 whole entry): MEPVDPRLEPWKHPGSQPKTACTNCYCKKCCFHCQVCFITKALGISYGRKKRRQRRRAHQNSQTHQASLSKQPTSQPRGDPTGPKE

[3] = Luminescence Cell-Based Dose Confirmation HTS to Identify Inhibitors of Platelet Dense Granule Release. [Related pubchem assays: 1663 (Primary HTS), 1678 (Summary of Project)]; type: functional
[4] = HEK293 cell cytotoxicity, dose response, cytotoxicity control, ATP luminescence, dry powder, set 3 (AID 743131); type: functional, cell-based
Cytochrome P450 3A4 = Cytochrome P450 3A4 (Homo sapiens, UniProt P08684);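 also: CYP3A4 tested as one member of a cytochrome P450 panel screen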
Chain of Cytochrome P450 3A4 (P08684 whole entry): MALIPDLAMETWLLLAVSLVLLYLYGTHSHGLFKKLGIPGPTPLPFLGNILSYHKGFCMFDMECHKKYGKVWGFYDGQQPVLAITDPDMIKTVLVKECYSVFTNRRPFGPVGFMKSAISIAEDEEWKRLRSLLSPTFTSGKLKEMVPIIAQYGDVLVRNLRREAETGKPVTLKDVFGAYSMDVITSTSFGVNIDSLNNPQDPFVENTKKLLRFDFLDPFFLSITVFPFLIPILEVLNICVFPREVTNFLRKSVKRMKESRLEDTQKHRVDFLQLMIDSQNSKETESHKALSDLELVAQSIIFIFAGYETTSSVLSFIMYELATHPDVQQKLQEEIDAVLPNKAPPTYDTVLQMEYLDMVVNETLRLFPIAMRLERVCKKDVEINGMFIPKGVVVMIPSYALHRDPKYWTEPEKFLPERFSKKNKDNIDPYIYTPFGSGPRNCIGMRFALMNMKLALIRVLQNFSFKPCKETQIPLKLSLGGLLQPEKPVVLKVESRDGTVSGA

cells [5] = assay: cells
[6] = A Cell-Based Counter Screen testing Compounds that Inhibit VEEV TC-83, in strain KU V3526.; type: functional
[7] = HEp-2 cell cytotoxicity, dose response, cytotoxicity control for RSV inhibitor project, HTS (AID 2410); type: functional; conditions: human respiratory syncytial virus
[8] = A Cell-Based Confirmatory Screen for Compounds that Inhibit VEEV, TC-83 (2).; type: functional
Cytochrome P450 1A2 = biological target: T1, Cytochrome P450 1A2 (Homo sapiens, UniProt P05177);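 also: PubChem cytochrome P450 panel assay, CYP1A2 panel member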
T1 sequence (P05177 whole entry): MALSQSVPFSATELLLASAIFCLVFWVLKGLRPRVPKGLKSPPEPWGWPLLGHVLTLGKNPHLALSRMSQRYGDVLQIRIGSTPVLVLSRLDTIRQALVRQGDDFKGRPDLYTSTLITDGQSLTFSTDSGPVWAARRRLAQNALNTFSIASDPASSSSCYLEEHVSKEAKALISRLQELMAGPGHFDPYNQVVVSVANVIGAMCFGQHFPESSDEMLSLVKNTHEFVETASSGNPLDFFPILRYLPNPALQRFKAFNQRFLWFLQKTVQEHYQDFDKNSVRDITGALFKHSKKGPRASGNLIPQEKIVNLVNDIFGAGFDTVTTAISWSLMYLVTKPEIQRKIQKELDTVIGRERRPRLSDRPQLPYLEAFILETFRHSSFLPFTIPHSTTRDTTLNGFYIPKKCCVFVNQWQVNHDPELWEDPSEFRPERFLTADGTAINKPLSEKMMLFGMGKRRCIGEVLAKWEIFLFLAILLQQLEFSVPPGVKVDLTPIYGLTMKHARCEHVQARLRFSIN

[9] = Vero 76 cell cytotoxicity, dose response, cytotoxicity control, set 2 (AID 602240); type: functional; conditions: Venezuelan equine encephalitis virus
Vero [10] = assay: cells; type: functional, cell-based; conditions: Chlorocebus sabaeus
Vero [11] = assay: cells; type: functional; conditions: Chlorocebus sabaeus
[12] = cytotoxicity dependent on PAX8, dose response, cell-based, plate reader, dry powder (AID 743049); type: functional
[13] = PAX2 cell-based inhibition, dose response, selectivity assay for PAX8 inhibitor project, plate reader, dry powder samples (AID 743048); type: functional;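 also: HEK293 cells carrying a WT1 promoter luciferase reporter driven by expressed Pax2; potency is for inhibition of Pax2 driven reporter signal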
[14] = cytotoxicity in OV-90 ovarian cancer cells, dose response, PAX8 inhibitor project, cell-based, plate reader, dry powder, SA8 (AID 743149); type: functional
Paired box protein Pax-8 = Paired box protein Pax-8 (Homo sapiens, UniProt Q06710); assay: inhibitors of PAX8-driven TPO luciferase reporter, dose response, RMG-I cells, cherry-pick (AID 687027); type: functional, cell-based;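 also: luciferase reporter driven by Pax8 target thyroperoxidase promoter measured by SteadyGlo luminescence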
Chain of Paired box protein Pax-8 (Q06710 whole entry): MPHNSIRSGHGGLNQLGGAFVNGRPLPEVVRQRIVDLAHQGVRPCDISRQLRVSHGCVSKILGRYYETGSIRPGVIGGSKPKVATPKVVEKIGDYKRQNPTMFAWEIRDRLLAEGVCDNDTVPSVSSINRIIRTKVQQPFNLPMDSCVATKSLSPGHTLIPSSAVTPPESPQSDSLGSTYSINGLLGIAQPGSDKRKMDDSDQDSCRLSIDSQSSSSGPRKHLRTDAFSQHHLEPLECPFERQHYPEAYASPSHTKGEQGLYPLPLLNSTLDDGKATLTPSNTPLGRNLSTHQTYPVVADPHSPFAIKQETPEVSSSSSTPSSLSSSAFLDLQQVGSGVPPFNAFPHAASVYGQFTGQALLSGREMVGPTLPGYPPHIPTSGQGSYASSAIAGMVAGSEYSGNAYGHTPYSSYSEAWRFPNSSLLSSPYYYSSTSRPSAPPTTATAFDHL

[15] = PAX5 activity inhibitors, dose response, selectivity assay for PAX8 inhibitor project, cell-based, plate reader, dry powder samples (AID 743047); type: functional;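 also: HEK293 cells carrying a Pax5 driven CD19 promoter luciferase reporter; potency of inhibitors that lower reporter luminescence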
[16] = Late-stage results from the probe development effort to identify antagonists of arginine vasopressin receptor 1a (AVPR1a): fluorescence-based cell-based dose response OXTR inhibition counterscreen assay.; type: functional
Vasopressin V1b receptor = Vasopressin V1b receptor (Homo sapiens, UniProt P47901); assay: Late-stage results from the probe development effort to identify antagonists of arginine vasopressin receptor 1a (AVPR1a): fluorescence-based cell-based dose response AVPR1b inhibition counterscreen assay.; type: functional
Chain of Vasopressin V1b receptor (P47901 whole entry): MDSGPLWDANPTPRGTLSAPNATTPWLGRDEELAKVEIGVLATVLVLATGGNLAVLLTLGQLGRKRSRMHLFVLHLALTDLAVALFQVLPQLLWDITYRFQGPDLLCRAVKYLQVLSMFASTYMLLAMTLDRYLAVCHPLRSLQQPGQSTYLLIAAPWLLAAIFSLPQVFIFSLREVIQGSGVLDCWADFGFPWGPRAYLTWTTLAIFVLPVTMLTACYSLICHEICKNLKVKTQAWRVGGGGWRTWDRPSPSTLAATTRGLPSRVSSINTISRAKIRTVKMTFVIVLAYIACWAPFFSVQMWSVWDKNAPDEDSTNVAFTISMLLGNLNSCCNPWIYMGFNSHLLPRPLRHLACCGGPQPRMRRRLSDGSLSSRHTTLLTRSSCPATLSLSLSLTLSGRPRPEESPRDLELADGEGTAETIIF

[17] = Late-stage results from the probe development effort to identify antagonists of arginine vasopressin receptor 1a (AVPR1a): fluorescence-based cell-based dose response AVPR1a inhibition assay.; type: functional
Vasopressin V2 receptor = Vasopressin V2 receptor (Homo sapiens, UniProt P30518); assay: Late-stage results from the probe development effort to identify antagonists of arginine vasopressin receptor 1a (AVPR1a): fluorescence-based cell-based dose response AVPR2 inhibition counterscreen assay.; type: functional
Chain of Vasopressin V2 receptor (P30518 whole entry): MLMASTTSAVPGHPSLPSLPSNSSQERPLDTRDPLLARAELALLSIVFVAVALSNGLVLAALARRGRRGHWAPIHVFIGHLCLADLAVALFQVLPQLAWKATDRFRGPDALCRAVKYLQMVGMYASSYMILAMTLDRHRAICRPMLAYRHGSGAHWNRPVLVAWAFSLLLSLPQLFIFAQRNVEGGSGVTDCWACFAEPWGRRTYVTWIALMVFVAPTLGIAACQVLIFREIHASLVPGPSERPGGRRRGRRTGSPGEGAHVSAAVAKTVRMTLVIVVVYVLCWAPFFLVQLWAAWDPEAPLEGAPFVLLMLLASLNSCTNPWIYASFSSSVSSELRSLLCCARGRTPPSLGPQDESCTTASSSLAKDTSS

[18] = growth inhibition of replicating M. tuberculosis, dose response, counter-screen, dry powder, IC90 (AID 651617); type: functional; conditions: Mycobacterium tuberculosis
[19] = inhibitors of non-replicating M. tuberculosis, dose response, luciferase, dry powder (AID 651619); type: functional; conditions: Mycobacterium tuberculosis
[20] = cytotoxicity in HeLa cells, dose response, cytotoxicity control, cell-based, plate reader, dry powder (AID 651946); type: functional
[21] = inhibitors of non-replicating M. tuberculosis, dose response, luciferase, dry powder (AID 651620); type: functional; conditions: Mycobacterium tuberculosis
[22] = HEK293T cell cytotoxicity, dose response, cytotoxicity control, CellTiter-Glo luminescence, dry powder, set 6 (AID 651949); type: functional, cell-based; conditions: HEK293
[23] = MITF Measured in Cell-Based System Using Plate Reader - 2084-01_Inhibitor_Dose_DryPowder_Activity_Set7.; type: functional
[24] = SK-MEL-5 parental cell viability reduction, dose response, orthogonal assay for MITF inhibitor project, CellTiter-Glo luminescence, dry powder, set 8 (AID 651586); type: functional, cell-based
[25] = A375 melanoma cell viability loss, dose response, counter-screen for MITF inhibitor project, CellTiter-Glo luminescence, dry powder, set 4 (AID 624364); type: functional, cell-based; conditions: A-375;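 also: A375 melanoma cells are MITF independent so this is a counter screen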
[26] = A375 melanoma cell cytotoxicity, dose response, counter-screen for MITF inhibitor project, CellTiter-Glo luminescence, dry powder, set 2 (AID 624489); type: functional, cell-based; conditions: A-375;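 also: actives are compounds lowering A375 viability meaning general cytotoxicity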
[27] = MITF Orthogonal Assay: SK-MEL-5 CTG Assay Measured in Cell-Based System Using Plate Reader - 2084-02_Inhibitor_Dose_DryPowder_Activity_Set5.; type: functional
[28] = A375 melanoma cell cytotoxicity, dose response, counter-screen for MITF inhibitor project, CellTiter-Glo luminescence, dry powder, set 6 (AID 624488); type: functional, cell-based; conditions: A-375
[29] = TRPM1 promoter luciferase reporter signal decrease, dose response, MITF inhibitor project, cell-based, SK-MEL-5, dry powder, set 9 (AID 651588); type: functional
[30] = MALME3 melanoma cell viability reduction, dose response, orthogonal assay for MITF inhibitor project, CellTiter-Glo luminescence, dry powder, set 5 (AID 651584); type: functional, cell-based; conditions: MALME-3
[31] = SK-MEL-5 parental line viability, dose response, MITF inhibitor project, cell-based, CellTiter-Glo, dry powder, set 6 (AID 624429); type: functional
[32] = MITF Orthogonal Assay: MALME3 CTG Assay Measured in Cell-Based System Using Plate Reader - 2084-04_Inhibitor_Dose_DryPowder_Activity_Set6.; type: functional; conditions: MALME-3
[33] = A375 melanoma cell cytotoxicity, dose response, counter-screen for MITF inhibitor project, CellTiter-Glo luminescence, dry powder, set 7 (AID 624490); type: functional, cell-based; conditions: A-375
[34] = MITF Measured in Cell-Based System Using Plate Reader - 2084-01_Inhibitor_Dose_DryPowder_Activity_Set6.; type: functional
[35] = A375 melanoma cell viability loss, dose response, counter-screen for MITF modulator project, CellTiter-Glo luminescence, dry powder, set 9 (AID 651591); type: functional, cell-based; conditions: A-375
[36] = Artemis endonuclease inhibitor potency, dose response, biochemical, fluorescence intensity (AID 720701); type: functional;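 also: Artemis endonuclease enzyme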
[37] = P. falciparum Dd2 growth inhibitors, dose response, SYBR Green, dry powder samples, set 4 (AID 1159572); type: functional, cell-based
[38] = P. falciparum Dd2 growth inhibitors, dose response, SYBR Green, dry powder samples, set 9 (AID 1159568); type: functional, cell-based
[39] = A549 cell cytotoxicity, dose response, cytotoxicity control, plate reader, dry powder, set 6 (AID 743312); type: functional, cell-based
cells [40] = conditions: HEK293
[41] = HepG2 cell cytotoxicity, dose response, cytotoxicity control, plate reader, dry powder, set 6 (AID 743311); type: functional, cell-based
[42] = HeLa 4N DNA content increase, dose response, cell-based, IC50 (AID 1117351); type: functional
SN12K1 = assay: cells; type: functional; conditions: Homo sapiens
[43] = inhibitors of firefly luciferase expression or activity, dose response, H4 neuroglioma cells, luminescence (AID 1990); type: functional, cell-based
[44] = biological target: FAD-linked sulfhydryl oxidase ALR (Homo sapiens, UniProt P55789); assay: inhibitors of human ALR sulfhydryl oxidase, dose response, biochemical, H2O2 detection, luminescence, cherry-pick (AID 493248)
Chain of FAD-linked sulfhydryl oxidase ALR (P55789 whole entry): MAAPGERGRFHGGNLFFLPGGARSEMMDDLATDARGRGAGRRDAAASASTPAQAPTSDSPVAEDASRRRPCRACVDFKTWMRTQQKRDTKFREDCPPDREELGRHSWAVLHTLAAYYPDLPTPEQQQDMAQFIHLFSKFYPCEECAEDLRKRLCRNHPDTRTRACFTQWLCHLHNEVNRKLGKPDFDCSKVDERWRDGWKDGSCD

[45] = inhibitors of SNCA 5'UTR-driven reporter translation, confirmation, H4 neuroglioma cells, luminescence (AID 1988); type: functional, cell-based
[46] = Luminescence Cell-Based Dose Response HTS to Identify Inhibitors of 5'UTR Stem-Loop Driven Prion Protein mRNA Translation in H4 Neuroglioblastoma Cells. [Related pubchem assays: 1827 (Project Summary), 1813 (Primary HTS)]; type: functional
P388 = assay: cells; type: functional; conditions: Mus musculus
[47] = HeLa 2N DNA content increase, dose response, cell-based, IC50 (AID 1117349); type: functional
P388/ADR = assay: cells; type: functional; conditions: Mus musculus
[48] = cytotoxicity toward HT-29 cells – cell-based, CellTiter-Glo luminescence, IC50, dose response (AID 1117330); type: functional
[49] = RKO cell viability reduction, dose response, CellTiter-Glo luminescence (AID 1117322); type: functional
[50] = cytotoxicity toward HCT116 cells – cell-based, CellTiter-Glo luminescence, IC50, dose response (AID 1117332); type: functional; conditions: HCT-116
[51] = CellTiter-Glo luminescent dose response of DLD-1 viability loss (AID 1117352); type: functional
[52] = HCT116 cell viability decrease, GSK3B pretreatment – CellTiter-Glo, IC50, dose response (AID 1117339); type: functional; conditions: HCT-116
[53] = cytotoxicity toward Colo320 cells – cell-based, CellTiter-Glo luminescence, IC50, dose response (AID 1117334); type: functional; conditions: COLO 320
[54] = Concentration-dependent survival of SW480 colon cancer line, luminescence detection with CellTiter-Glo, half-maximal inhibitory concentration (AID 1117338); type: functional
[55] = SNU-C1 cell viability reduction, dose response, CellTiter-Glo luminescence (AID 1117323); type: functional, cell-based

Chain of Glutathione-S-transferase (Q26513 whole entry): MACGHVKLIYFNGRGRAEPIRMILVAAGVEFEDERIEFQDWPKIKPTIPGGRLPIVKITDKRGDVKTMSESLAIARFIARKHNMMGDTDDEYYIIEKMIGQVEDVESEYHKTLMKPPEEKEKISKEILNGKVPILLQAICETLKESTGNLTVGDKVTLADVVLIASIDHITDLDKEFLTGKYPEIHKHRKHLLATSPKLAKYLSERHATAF

O=C(NC(=S)N1CCCc2ccccc21)c1ccccc1
> 112 µM (not active): EC50 [2] | EC50 [3]
active: IC50 [1] 90.8 µM | IC50 (Protein Tat) > 100 µM

Cc1ccccc1OCCn1c(S)nc2ccccc21
active: AC50 [4] 0.344 µM

CCOC(=O)c1ccc(Nc2nc(=O)c3cccnc3s2)cc1
active: IC50 (cells [5]) 9.32 µM | IC50 [6] 7.07 µM | CC50 [7] 22.4 µM | IC50 [8] 10.8 µM | CC50 [9] > 50 µM | IC50 (Vero [10]) 6.32 µM | CC50 (Vero [11]) > 25 µM
inconclusive: AC50 (Cytochrome P450 3A4) | AC50 (Cytochrome P450 1A2) 14.1 µM

N#C[C@@H]1[C@@H](c2ccc(-c3ccccc3F)cc2)[C@@H](CO)N1C(=O)C1CCC1
active: AC50 (Paired box protein Pax-8) 8.88 µM | AC50 [15] 60.8 µM
inactive: AC50 [12] > 70 µM | AC50 [13] > 70 µM | AC50 [14] > 70 µM

N#Cc1ccnc(N2CCC(C(=O)N(CC3CC3)c3ccc(Cl)cc3)CC2)c1
inactive: IC50 (Vasopressin V1b receptor) > 50 µM | IC50 (Vasopressin V2 receptor) > 50 µM
active: IC50 [16] 4.6 µM | IC50 [17] 0.0628 µM

COc1cccc(-c2nnc(SCc3ccccn3)o2)c1
inactive: AC50 [20] > 52 µM | AC50 [22] > 52 µM
active: IC90 [18] 125 µM | IC90 [19] 4 µM | IC90 [21] 4 µM

CN1CCN(C2=C(NS(=O)(=O)c3ccc(Br)s3)C(=O)c3ccccc3C2=O)CC1
active: AC50 [23] 2.26 µM | AC50 [24] 36.8 µM | AC50 [25] 65 µM | AC50 [26] 47.4 µM | AC50 [27] 11.2 µM | AC50 [28] 26.3 µM | AC50 [29] 8.02 µM | AC50 [30] 12 µM | AC50 [31] 64.7 µM | AC50 [32] 12 µM | AC50 [34] 1.94 µM
inactive: AC50 [33] > 70 µM | AC50 [35] > 70 µM

COc1ccc(/C=N/NC(=O)c2nc(-c3ccccc3)cc(-c3ccccc3)n2)cc1
inactive: IC50 [36] > 20 µM

CCC(=O)N1CC2(CCN(C(=O)Nc3ccccc3F)CC2)c2c([nH]c3cc(OC)ccc23)[C@@H]1CO
active: AC50 [37] 0.294 µM | AC50 [38] 0.561 µM

Cc1cc2ncn(CCOc3ccccc3C)c2cc1C
active: AC50 [39] 11.4 µM | AC50 (cells [40]) 47.4 µM | AC50 [41] 36.5 µM

O=C(O)CCCc1ccc(N(CCCl)CCCl)cc1 [CHLORAMBUCIL]
inactive: IC50 [42] > 10 µM | GI50 (SN12K1) 49.5 µM | GI50 (P388) 3.73 µM | IC50 [47] > 10 µM | GI50 (P388/ADR) 6.25 µM
> 120 µM (not active): EC50 [43] | EC50 [46]
active: AC50 [44] < 0.005 µM | EC50 [45] 32.6 µM

CNS(=O)(=O)CCc1ccc2[nH]cc(C3CCN(C)CC3)c2c1 [NARATRIPTAN HYDROCHLORIDE]
inactive: IC50 [48] > 20 µM | IC50 [49] > 20 µM | IC50 [50] > 20 µM | IC50 [51] > 20 µM | IC50 [52] 12.1 µM | IC50 [53] > 20 µM | IC50 [54] > 20 µM | IC50 [55] > 20 µM
